Data from the NIST ThermoML archive (doi:10.1016/j.jct.2013.01.010).

Columns and labels:
[1] = xn = mol fraction of the nth substance listed; details: 101 kPa, Liquid; for speed of sound: Sing-around technique in a fixed-path interferometer; for mass density: Vibrating tube method
[2] = excess molar enthalpy (molar enthalpy of mixing); xn = mol fraction of the nth substance listed; details: 298.15 K, 101 kPa, Liquid, 2-Drop Calorimetry

CCn1cc[n+](C)c1.F[B-](F)(F)F [1-ethyl-3-methylimidazolium tetrafluoroborate] + CC(C)=O
[1]
Details | mass density, 293.15 K [kg/m3] | mass density, 298.15 K [kg/m3] | mass density, 303.15 K [kg/m3] | mass density, 308.15 K [kg/m3] | speed of sound, 293.15 K [m/s] | speed of sound, 298.15 K [m/s] | speed of sound, 303.15 K [m/s] | speed of sound, 308.15 K [m/s]
x1 = 0.1214 | 933.27 | 928.61 | 923.44 | 918.15 | 1241.1 | 1221 | 1193.4 | 1172.8
x1 = 0.1789 | 987.63 | 983.61 | 978.74 | 973.95 | 1280.4 | 1261.7 | 1233.4 | 1211.1
x1 = 0.2147 | 1017.82 | 1013.85 | 1009.37 | 1004.85 | 1307.6 | 1290.7 | 1262.9 | 1238.4
x1 = 0.2813 | 1066.88 | 1063.3 | 1059.25 | 1055.19 | 1360.4 | 1349.9 | 1321.9 | 1295.2
x1 = 0.3219 | 1092.73 | 1089.56 | 1085.84 | 1082.01 | 1394.1 | 1386.6 | 1358.3 | 1331
x1 = 0.3649 | 1117.49 | 1114.19 | 1110.78 | 1107.15 | 1429.2 | 1423.4 | 1398.5 | 1367.9
x1 = 0.4193 | 1144.91 | 1141.69 | 1138.75 | 1135.16 | 1473.1 | 1469.1 | 1449.6 | 1417.4
x1 = 0.4714 | 1167.62 | 1164.64 | 1161.69 | 1158.46 | 1507.7 | 1510.2 | 1490.7 | 1458.4
x1 = 0.5217 | 1186.9 | 1183.85 | 1181.07 | 1177.84 | 1539.7 | 1539.6 | 1526.3 | 1498
x1 = 0.5772 | 1205.54 | 1202.14 | 1199.7 | 1196.16 | 1566 | 1566.1 | 1559.2 | 1531
x1 = 0.6319 | 1221.27 | 1217.91 | 1215.28 | 1211.72 | 1583 | 1585.4 | 1579.8 | 1558.2
x1 = 0.6768 | 1232.69 | 1229.09 | 1226.6 | 1222.91 | 1593.5 | 1591.6 | 1587.6 | 1574.7
x1 = 0.7199 | 1242.54 | 1238.8 | 1236.06 | 1232.31 | 1601.6 | 1596.9 | 1594 | 1587.8
x1 = 0.7724 | 1252.97 | 1249.12 | 1246.25 | 1242.25 | 1604.7 | 1595.8 | 1592.9 | 1595.8
x1 = 0.8304 | 1263 | 1258.91 | 1255.95 | 1251.74 | 1607.5 | 1595.9 | 1591.6 | 1597.6
x1 = 0.8766 | 1269.84 | 1265.74 | 1262.51 | 1258.3 | 1610 | 1595.9 | 1589.9 | 1597.6
x1 = 0.9011 | 1273.08 | 1268.96 | 1265.71 | 1261.43 | 1612.6 | 1596.6 | 1589.4 | 1597.9
x1 = 0.9203 | 1275.47 | 1271.38 | 1267.99 | 1263.7 | 1614.6 | 1599 | 1591 | 1597.3

[2]
Details | excess molar enthalpy [kcal/mol]
x1 = 0.0987 | -0.0136
x1 = 0.1451 | -0.0198
x1 = 0.1991 | -0.0272
x1 = 0.2547 | -0.0339
x1 = 0.3012 | -0.038
x1 = 0.3428 | -0.0423
x1 = 0.3984 | -0.0461
x1 = 0.4425 | -0.0483
x1 = 0.4851 | -0.0497
x1 = 0.5335 | -0.0502
x1 = 0.6021 | -0.048
x1 = 0.6689 | -0.0454
x1 = 0.7148 | -0.0418
x1 = 0.7723 | -0.0359
x1 = 0.8227 | -0.0289
x1 = 0.8769 | -0.0213
x1 = 0.9012 | -0.0174
x1 = 0.9113 | -0.016

CCn1cc[n+](C)c1.F[B-](F)(F)F [1-ethyl-3-methylimidazolium tetrafluoroborate] + C[S+](C)[O-]
[1]
Details | mass density, 293.15 K [kg/m3] | mass density, 298.15 K [kg/m3] | mass density, 303.15 K [kg/m3] | mass density, 308.15 K [kg/m3] | speed of sound, 293.15 K [m/s] | speed of sound, 298.15 K [m/s] | speed of sound, 303.15 K [m/s] | speed of sound, 308.15 K [m/s]
x1 = 0.1319 | 1154.13 | 1149.63 | 1145.2 | 1140.37 | 1533 | 1514.8 | 1498.7 | 1481.3
x1 = 0.1819 | 1170.55 | 1166.13 | 1161.81 | 1157.02 | 1544.4 | 1526.6 | 1510.3 | 1492.8
x1 = 0.2336 | 1185.68 | 1181.3 | 1177.06 | 1172.25 | 1556.2 | 1538.6 | 1522.2 | 1504.7
x1 = 0.2909 | 1200.5 | 1196.12 | 1191.89 | 1187.15 | 1567.8 | 1551 | 1535.1 | 1517.4
x1 = 0.3417 | 1212.05 | 1207.64 | 1203.45 | 1198.76 | 1577.3 | 1561.5 | 1545.4 | 1528.1
x1 = 0.3799 | 1219.83 | 1215.48 | 1211.24 | 1206.59 | 1584 | 1568.7 | 1552.3 | 1535.9
x1 = 0.4215 | 1227.57 | 1223.18 | 1219.02 | 1214.39 | 1589.9 | 1575.8 | 1559.5 | 1543.2
x1 = 0.4719 | 1236 | 1231.61 | 1227.4 | 1222.88 | 1596.3 | 1583.7 | 1567.7 | 1552
x1 = 0.5335 | 1244.97 | 1240.56 | 1236.44 | 1232.02 | 1602.8 | 1591.2 | 1575.8 | 1560.5
x1 = 0.5782 | 1250.68 | 1246.29 | 1242.17 | 1237.86 | 1606.2 | 1595.6 | 1580.4 | 1566.1
x1 = 0.6198 | 1255.44 | 1251.13 | 1247.04 | 1242.76 | 1608.8 | 1598.6 | 1584.3 | 1571
x1 = 0.6717 | 1260.78 | 1256.5 | 1252.45 | 1248.28 | 1611 | 1601.8 | 1588.6 | 1575.9
x1 = 0.7204 | 1265.23 | 1260.99 | 1257 | 1252.91 | 1613 | 1604.4 | 1591.7 | 1579.7
x1 = 0.7737 | 1269.58 | 1265.39 | 1261.48 | 1257.45 | 1614.7 | 1606.4 | 1594.6 | 1583.2
x1 = 0.8219 | 1273.1 | 1268.95 | 1265.1 | 1261.11 | 1616.4 | 1607.9 | 1596.8 | 1586
x1 = 0.8783 | 1276.82 | 1272.74 | 1268.97 | 1264.97 | 1619.2 | 1610.3 | 1599.7 | 1588.9
x1 = 0.9041 | 1278.42 | 1274.36 | 1270.62 | 1266.61 | 1621 | 1611.6 | 1601.1 | 1590.4
x1 = 0.9249 | 1279.65 | 1275.62 | 1271.9 | 1267.87 | 1622.6 | 1612.9 | 1602.2 | 1591.6

[2]
Details | excess molar enthalpy [kcal/mol]
x1 = 0.1116 | -0.104
x1 = 0.1785 | -0.159
x1 = 0.2157 | -0.192
x1 = 0.2854 | -0.233
x1 = 0.3259 | -0.256
x1 = 0.3981 | -0.281
x1 = 0.4368 | -0.285
x1 = 0.4852 | -0.29
x1 = 0.5111 | -0.291
x1 = 0.5729 | -0.281
x1 = 0.6255 | -0.26
x1 = 0.6899 | -0.232
x1 = 0.7365 | -0.208
x1 = 0.7943 | -0.168
x1 = 0.8338 | -0.137
x1 = 0.8896 | -0.0906
x1 = 0.9012 | -0.0839
x1 = 0.9258 | -0.0619
